# Laboratory results: ChEMBL document CHEMBL5726443, “Bicyclic sulfonamide compounds as sodium channel inhibitors” (2017)
# Target: Sodium channel protein type 9 subunit alpha (Homo sapiens, UniProt Q15858)
# Experiment: Compound effects were measured on a partially inactivated state of the sodium channel. Cells were clamped to a holding potential yielding 20 to 50% inactivation. To elicit sodium current, channels were activated by pulsing to ⿿10 mV for 20 msec. This voltage protocol was repeated at a rate of 0.1 Hz throughout the experiment.
# Chain of Sodium channel protein type 9 subunit alpha (Q15858 whole entry): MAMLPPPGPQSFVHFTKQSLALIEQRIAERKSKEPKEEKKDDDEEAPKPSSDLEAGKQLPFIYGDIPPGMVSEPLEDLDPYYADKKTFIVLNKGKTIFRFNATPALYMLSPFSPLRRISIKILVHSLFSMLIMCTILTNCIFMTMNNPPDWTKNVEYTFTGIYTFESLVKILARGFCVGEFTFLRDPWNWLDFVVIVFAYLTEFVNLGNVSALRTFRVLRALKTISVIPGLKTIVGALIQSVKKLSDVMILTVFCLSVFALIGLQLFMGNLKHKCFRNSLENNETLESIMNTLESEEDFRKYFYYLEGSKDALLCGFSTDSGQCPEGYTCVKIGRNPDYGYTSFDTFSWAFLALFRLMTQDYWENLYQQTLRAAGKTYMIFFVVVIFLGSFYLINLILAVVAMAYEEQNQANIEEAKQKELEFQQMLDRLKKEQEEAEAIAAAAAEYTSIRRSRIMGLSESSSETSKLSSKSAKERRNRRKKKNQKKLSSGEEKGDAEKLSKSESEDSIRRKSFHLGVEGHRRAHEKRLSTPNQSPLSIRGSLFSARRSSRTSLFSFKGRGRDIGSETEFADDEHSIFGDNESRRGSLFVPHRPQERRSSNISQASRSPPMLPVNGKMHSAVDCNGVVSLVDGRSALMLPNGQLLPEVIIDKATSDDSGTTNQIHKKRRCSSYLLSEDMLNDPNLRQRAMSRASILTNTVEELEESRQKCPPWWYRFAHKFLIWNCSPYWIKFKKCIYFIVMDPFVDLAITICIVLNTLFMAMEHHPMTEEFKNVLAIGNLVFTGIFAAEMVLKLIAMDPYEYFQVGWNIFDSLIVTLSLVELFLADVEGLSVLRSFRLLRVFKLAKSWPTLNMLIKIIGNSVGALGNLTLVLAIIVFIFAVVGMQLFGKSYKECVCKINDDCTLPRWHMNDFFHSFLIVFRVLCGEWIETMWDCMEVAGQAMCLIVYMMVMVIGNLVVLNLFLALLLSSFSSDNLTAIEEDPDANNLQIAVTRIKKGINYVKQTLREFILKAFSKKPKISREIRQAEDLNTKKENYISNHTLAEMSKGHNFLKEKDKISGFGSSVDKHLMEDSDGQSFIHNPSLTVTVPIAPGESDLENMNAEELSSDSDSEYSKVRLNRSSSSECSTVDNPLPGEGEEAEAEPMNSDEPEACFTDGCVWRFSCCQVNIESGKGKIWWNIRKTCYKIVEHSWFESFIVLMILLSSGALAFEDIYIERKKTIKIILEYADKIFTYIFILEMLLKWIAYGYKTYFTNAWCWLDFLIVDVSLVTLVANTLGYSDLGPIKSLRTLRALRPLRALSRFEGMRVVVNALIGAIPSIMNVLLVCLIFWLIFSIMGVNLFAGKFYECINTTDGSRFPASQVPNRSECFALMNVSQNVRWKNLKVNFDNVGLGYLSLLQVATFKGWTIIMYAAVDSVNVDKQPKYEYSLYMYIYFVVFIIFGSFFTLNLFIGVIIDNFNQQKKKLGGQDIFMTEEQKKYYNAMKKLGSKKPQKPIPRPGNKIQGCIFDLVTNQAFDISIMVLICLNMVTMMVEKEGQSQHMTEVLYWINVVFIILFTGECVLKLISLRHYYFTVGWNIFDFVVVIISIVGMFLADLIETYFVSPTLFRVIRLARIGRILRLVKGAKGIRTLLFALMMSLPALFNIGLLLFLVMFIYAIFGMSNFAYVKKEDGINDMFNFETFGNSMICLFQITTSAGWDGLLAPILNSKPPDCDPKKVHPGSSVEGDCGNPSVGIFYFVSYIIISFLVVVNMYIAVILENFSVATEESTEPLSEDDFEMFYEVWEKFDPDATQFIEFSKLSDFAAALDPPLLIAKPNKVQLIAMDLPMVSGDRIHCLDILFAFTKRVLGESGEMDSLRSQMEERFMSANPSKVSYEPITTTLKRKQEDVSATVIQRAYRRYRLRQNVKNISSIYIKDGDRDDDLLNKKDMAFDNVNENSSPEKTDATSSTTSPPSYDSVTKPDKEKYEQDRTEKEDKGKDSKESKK
row,SMILES,IC50 [nM]
1,COc1cc(-c2ccc(F)c(C)n2)c(C)cc1-c1ncnc2cc(S(=O)(=O)Nc3ccon3)ccc12,445
2,COc1cc(-c2cccc(Cl)c2)c(F)cc1-c1ncnc2cc(S(=O)(=O)Nc3ncc(F)cn3)ccc12,107
3,COc1cc(-c2cccc(C(F)(F)F)c2)c(C)cc1-c1nccc2cc(S(=O)(=O)Nc3ccon3)ccc12,60.9

# Second part, the compound after the results:
row,IC50 [nM],SMILES
1,9.2,COc1cc(-c2ccc(F)c(Cl)c2)c(C#N)cc1-c1nccc2cc(S(=O)(=O)Nc3nncs3)ccc12
2,18.6,COc1cc(-c2ccc(Cl)c(F)c2)c(C#N)cc1-c1nccc2cc(S(=O)(=O)Nc3nncs3)ccc12
